This is an account of results in PubChem BioAssay (NCI).

SMILES strings stand for the structures.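 Results reflect a 48-hour exposure of cells in 96-well plates to compound at five concentrations. TGI: concentration producing complete growth inhibition.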

Some test systems named below: SN12C renal; UACC-257 melanoma; CCRF-CEM leukemia; DU-145 prostate; OVCAR-5 ovarian; SF-539 CNS; MDA-N; SK-MEL-28 melanoma; TK-10 renal; NCI-H226 lung; HCT-116 colon; SW-620 colon; SF-295 CNS; A549 NSCLC; SR leukemia; NCI-H23 lung.
Holding throughout (assay): NCI anticancer screen, dose series, 48 h

For the compound `O=C1C(F)=CC(COC(c2ccccc2)(c2ccccc2)c2ccccc2)OC1n1cc(F)c(=O)[nH]c1=O` (configuration not stated), the TGI was 4.29 µM with SN12C renal; 4.72 µM in the assay with UACC-257 melanoma; more than 32 µM in the assay on CCRF-CEM leukemia; more than 34.2 µM with DU-145 prostate; 4.61 µM in the assay on OVCAR-5 ovarian; 3.75 µM in the assay with SF-539 CNS. The TGI came to 3.38 µM in the assay on MDA-N; 3.5 µM in the assay with SK-MEL-28 melanoma; 3.43 µM in the assay on TK-10 renal; 5.51 µM with NCI-H226 lung; 10.9 µM with HCT-116 colon; 4.26 µM in the assay on SW-620 colon. The TGI in the assay with SF-295 CNS was 5.06 µM; in the assay with A549 NSCLC, 6.12 µM; in the assay on SR leukemia it was more than 100 µM; with NCI-H23 lung, 3.91 µM.
Turning to `CN(C)c1nc(NC23CC4CC(CC(C4)C2)C3)nc(N(C)C)n1`, the TGI was more than 85.4 µM with SN12C renal; more than 100 µM with UACC-257 melanoma; 28.7 µM in the assay with CCRF-CEM leukemia; more than 100 µM with DU-145 prostate; more than 100 µM in the assay with OVCAR-5 ovarian; more than 79.6 µM in the assay with SF-539 CNS. Further, the TGI was more than 45.9 µM with MDA-N; more than 69.9 µM in the assay with SK-MEL-28 melanoma; more than 100 µM with TK-10 renal; more than 77.6 µM in the assay on NCI-H226 lung; more than 57.1 µM in the assay on HCT-116 colon; more than 56.2 µM in the assay on SW-620 colon. In addition, the TGI was more than 33.3 µM in the assay with SF-295 CNS, more than 39.4 µM with A549 NSCLC, 53.9 µM in the assay with SR leukemia and more than 100 µM in the assay on NCI-H23 lung.
